“Also recorded” adds a separate entry of the source.
Assays:
[1] = tested on: orthotopic KPC-derived PDAC tumors; experiment: Treatment study in orthotopic syngeneic KPC-derived PDAC mice: tumor weight; format: in vivo, mouse; conditions: 3 times a week for 2 weeks
Description: Syngeneic PDAC mice were generated by orthotopic pancreatic injections of 5.0×10^5 KPC-derived PDAC cells into 8- to 10-week-old C57B6129SF1/J hybrid mice (Jackson™), which are the offspring of a cross between C57BL/6J females and 129S1/SvImJ males. In some experiments, the tumor growth was measured by luminescence imaging.
(§1) The treatment studies in orthotopic syngeneic PDAC mice were performed as follows. Eight days after orthotopic implantation of 5.0×10^5 KPC-derived PDAC cells, the mice were randomized into respective treatment cohorts, such as intravenous (IV) phosphate buffered saline (PBS) alone, IV iRGD alone (300 μg/25 g), IV PBS+IP antimouse PD-L1 mAb (200 μg/mouse; clone MIH6; BioLegend™), IV iRGD+IP anti-mouse PD-L1 mAb, IV PBS+IV Gem (4 mg/kg; MilliporeSigma™), and IV iRGD+IV GEM+IP anti-mouse PD-L1 mAb. The treatment was given 3 times a week for 2 weeks starting 8 days after tumor cell implantation. The tumors and major organs were harvested at the end of the studies on day 22, weighed, and processed for flow cytometry, IF, and IHC. The treatment studies were terminated according to the guidelines by the IACUC at Columbia University. Treatment studies in transgenic KPC mice were performed as previously described.
C57B6129SF1/J hybrid mice bearing orthotopic KPC-derived PDAC tumors were treated with PBS or iRGD 3 times a week for 2 weeks. […]

[2] = tested on: Tregs and CD8+ T cells in PDAC tissue and spleen; experiment: Orthotopic KPC-derived PDAC mice: flow cytometry and IF of T cells in tumor and spleen; format: in vivo, mouse
Description: as §1
Tumors from orthotopic PDAC mice were minced into 2-4 mm pieces and added with an enzyme mix from a tumor dissociation kit (Miltenyi Biotec™) in Roswell Park Memorial Institute medium 1640 (Cytiva™). The tissues were dissociated using a gentle MACS Dissociator (Miltenyi Biotec™) followed by a 40-minute incubation at 37° C. The samples were then centrifuged for 10 minutes at 3000×g in the presence of debris removal solution (Miltenyi Biotec™) and 10 minutes at 1000×g in cooled PBS. The supernatant was aspirated to remove the debris. Splenocytes were prepared by gently grinding the spleen and filtrating the resulting cell suspension through a 40 μm cell strainer. Red cells were lysed with an ACK lysing buffer (Thermo Fisher Scientific™
Immune cells isolated from the tumor or spleen, or cells cultured in vitro were tested for surface marker by staining with the following reagents for 20 minutes at 4° C.: Brilliant Violet 650™-conjugated anti-mouse CD3 Ab (clone 17A2; BioLegend), PerCP/Cyanine5.5-conjugated anti-mouse CD4 Ab (clone GK1.5; BioLegend™), PE/Cyanine7-conjugated antimouse CD8a Ab (clone 53-6.7; BioLegend™), PE-conjugated anti-mouse CD25 Ab (clone 7D4; Miltenyi Biotec™), PE/Cyanine7-conjugated anti-mouse CD25 Ab (clone PC61; BioLegend™), Brilliant Violet 421™ or 711™-conjugated anti-mouse CD304/NRP-1 Ab (clone 3E12; BioLegend™), Alexa Fluor® 647-conjugated anti-mouse integrin αvβ5 Ab (clone ALULA; BD Biosciences™), PE-conjugated anti-mouse CD198 (CCR8) Ab (clone SA214G2; BioLegend™), Zombie NIR™ (BioLegend™), or Aqua™ Fixable Viability Kit (BioLegend™). Intracellular staining of immune cells was performed using the following Abs and a Foxp3 staining buffer kit (eBioscience) according to the manufacturer's instructions: Brilliant Violet 421™-conjugated anti-Foxp3 Ab (FJK-16s; eBioscience™) Pacific Blue™-conjugated anti-mouse Foxp3 Ab (clone MF-14; BioLegend™), cleaved caspase-3 (Asp175) (5A1E) rabbit mAb (Cell Signaling™), and Alexa Flour™ 488-conjugated donkey anti-rabbit secondary Ab (Thermo Fisher Scientific™)
The Effect of iRGD Therapy on the Proportion of CD8+ T cells, Tregs, and Non-Treg CD4+ T Cells in the PDAC Tissue and the Spleen was tested. C57B6129SF1/J hybrid mice bearing orthotopic KPCderived PDAC tumors were treated with PBS or iRGD 3 times a week for 2 weeks. The tumors and spleen were collected 3, 7 and 14 days after the treatment was started. The proportion of CD8+ T cells, CD4+CD25+ T cells (Tregs), and CD4+CD25neg T cells (non-Tregs) in the tumors (FIG. 6A) and the spleen (FIG. 6B) were analyzed by flow cytometry (n=3 per arm).
In addition, C57B6129SF1/J hybrid mice bearing KPC-derived orthotopic PDAC tumors were intravenously treated with PBS or iRGD 3 times a week for 2 weeks. Tumors and spleen were collected at 3, 7 and 14 days after the treatment was started. […]

huPDAC tumors = experiment: Humanized PDAC (huPDAC) mice treated with iRGD monotherapy; format: in vivo, mouse
Excerpt: In summary, this report conveys an important concept of tumor-specific Treg targeting, which can be achieved using an affinity probe that targets the αvβ5 integrin expressed on tumor-resident Tregs. […] The immune system of huPDAC mice is replaced by functional human immune cells, which react to antigens in a human-leukocyte antigen (HLA)-restricted manner, allowing us to study the response of human immunity against human PDAC in mice. […] Our finding that patient-derived PDAC tissue also harbors αvβ5 integrin- and NRP-1-positive Tregs further supports the argument that iRGD-mediated Treg targeting can be achieved in human PDAC patients. Clinical trials are now being organized to explore the therapeutic benefit of adding an ICB to iRGD-based chemotherapy in PDAC patients.

metastatic PDAC = conditions: in combination with gemcitabine (Gem) and nab-paclitaxel (Nab-P), phase 1b; cited from earlier work

For CRGDKGPDC [iRGD], the “tumor growth (tumor weight at end of study)” value [1] was “did not inhibit tumor growth; also recorded: did not affect tumor growth”, the “proportion of Tregs in the PDAC tissue” value ([2]; CD4+CD25+ Tregs among CD4+ T cells, tumor, in 7 days, vs PBS) was “significantly reduced the proportion of Tregs” and the “CD8/Treg ratio in the spleen” value ([2]; spleen of the PDAC mice) was “did not affect”. The “proportion of CD8+ T cells in the spleen” value ([2]; spleen of the PDAC mice) was “did not affect”, the “proportion of Tregs in the spleen” value ([2]; spleen of the PDAC mice) was “did not affect” and the “proportion of CD8+ T cells in the PDAC tissue” value ([2]; tumor, flow cytometry, vs PBS) was “increased the proportion of CD8+ T cells”. For the same sequence, the “CD8/Treg ratio in the PDAC tissue” value ([2]; tumor, in 7 days, vs PBS) was “significantly increased the CD8/Treg ratio”, the “CD8/Treg ratio in the huPDAC tumors” value (huPDAC tumors) was “increased the CD8/Treg ratio in the tumors” and the “efficacy against metastatic PDAC” value (metastatic PDAC) was “promising preliminary efficacy”.

Source: US20260069694A1, “IDENTIFICATION OF HIGHLY IMMUNOSUPRESIVE TREG POPULATION IN TUMOR MICROENVIRONMENTS” (THE TRUSTEES OF COLUMBIA UNIVERSITY IN THE CITY OF NEW YORK, priority 2023, published 2026)
